Measured values published in patent US12054495B2, “Substituted macrocyclic compounds and related methods of treatment” (Alkermes, Inc., priority 2019, dated 2024).

Assays:
[1] = target: T1, human orexin-2 receptor (OX2R) (Homo sapiens, UniProt O43614); test: Human OX2R IP1 assay; type: cell-based; conditions: T-Rex CHO cells stably overexpressing human OX2R, IP1 accumulation, 1 hr at 37 degrees C; mean EC50; ∧ = racemic mixture
T1 construct: expressed in transfected cells
T1 sequence (O43614 1-444): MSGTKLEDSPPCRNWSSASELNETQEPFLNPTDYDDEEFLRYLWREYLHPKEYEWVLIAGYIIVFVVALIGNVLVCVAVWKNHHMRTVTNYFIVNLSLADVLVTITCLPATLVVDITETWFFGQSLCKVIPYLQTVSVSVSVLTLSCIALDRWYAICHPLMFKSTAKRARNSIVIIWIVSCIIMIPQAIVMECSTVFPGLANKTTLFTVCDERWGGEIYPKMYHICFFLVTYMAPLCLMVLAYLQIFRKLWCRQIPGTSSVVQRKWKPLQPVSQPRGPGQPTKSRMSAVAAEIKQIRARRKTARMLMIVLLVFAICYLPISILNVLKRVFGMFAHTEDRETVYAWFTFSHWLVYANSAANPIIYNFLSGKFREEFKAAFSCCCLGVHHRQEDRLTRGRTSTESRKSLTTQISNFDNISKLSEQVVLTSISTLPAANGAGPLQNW
Procedure: T-Rex CHO cells stably overexpressing the human orexin-2 receptor (OX2R) were induced overnight with 1 μg/mL of doxycycline in a T225 flask. 24 hours post induction, cells were lifted with accutase and plated into a 384-well proxy plate at 30,000 cells/well. Cells were then treated with different test compounds in 1× stimulation buffer containing 10 mM Hepes, 1 mM CaCl2), 0.5 mM MgCl2, 4.2 mM KCl, 146 mM NaCl, 5.5 mM glucose, and 50 mM LiCl, pH 7.4, for 1 hr at 37 degrees C. Following incubation, the reaction was terminated by the addition of detection mix, which is composed of IP1-d2 and anti-IP1-cryptate diluted in lysis buffer as well as 1× stimulation buffer. The plates were allowed to incubate for 1 hour at room temperature and were then read in the EnVision® multimode plate reader, measuring inositol phosphate levels.
Cisbio IP1 is a cell-based functional assay quantifying the accumulation of inositol monophosphate (IP), a metabolite released as a result of orexin 2 receptor activation through the phospholipase C-Gq signaling pathway. This is a competitive immunoassay in which the IP1 produced by the cells upon receptor activation competes with the IP1 analog coupled to the d2 fluorophore (acceptor) for binding to an anti-IP1 monoclonal antibody labeled with Eu cryptate (donor). The measured HTRF-FRET based signal is inversely proportional to the IP1 concentration produced.
The EC50 values reported in Table 2 were obtained according to the human OX2R IP1 assay described above. Data are the mean EC50 values ±S.E.M. The compound methyl (2R,3S)-3-((methylsulfonyl)amino)-2-(((cis-4-phenylcyclohexyl)oxy)methyl)-piperidine-1-carboxylate is a reference compound which is disclosed in Example 5 of PCT publication no. WO2017/135306.

[2] = Hepatocytes stability assay (human hepatocytes); type: in vitro ADME; conditions: both sexes, cryopreserved hepatocytes, 1 μM test compound, 1×10^6 cell/mL, 37 degrees C, read-out: CLint (μL/min/million cells)
Procedure: (§1) In vitro metabolic stability was assessed using cryopreserved hepatocytes from male Sprague Dawley rats and a pool of 50 mixed gender humans (BioIVT, Baltimore, MD). The incubation mixtures were prepared by mixing 250 μL of pre-warmed KHB (Krebs-Henseleit buffer) containing 2×10^6 cell/mL of hepatocytes with 250 μL of pre-warmed KHB buffer containing 2 μM of test compounds in a 48-well plate, giving a final concentration of 1 μM test compound (0.1% DMSO) and 1×10^6 cell/mL of hepatocytes. The reaction mixture was incubated at 37 degrees C. A 50 μL aliquot of incubation mixture was taken at time points (0, 15, 30, 60, 120 and 240 minutes) and transferred into a 96-well plate containing 300 μL ice-cold acetonitrile (containing 30 ng/mL of labetalol and 10 ng/mL of Naltrexone-d3 as internal standards) and immediately placed in ice to terminate the reaction. Samples were centrifuged, and supernatants were transferred into 96-well plates for liquid chromatography with tandem mass spectrometry (LC-MS/MS) analysis to monitor the depletion of the test compound.
(§2) Data was calculated as percent remaining by assuming zero-minute time point peak area ratio (analyte/IS) as 100% and dividing remaining time point peak area ratios by zero-minute time point peak area ratio. Data were fitted to a first-order decay model to determine half-life. From a plot of log (ln) peak area against time, the slope of the line was determined. Subsequently, half-life (T1/2) and intrinsic clearance (CLint) were calculated using the equations below: Elimination rate constant (k)=(−slope) Half-life (T1/2)min=0.693/k Intrinsic Clearance (CLint) (mL/min/million cells)=(V×0.693)/T1/2 V=incubation volume mL/number of cells The in vitro T1/2 was converted to in vitro intrinsic clearance (CLint,hep) in units of mL/min/kg using the formula shown below:
(§3) [formula] The in vitro intrinsic clearance (CLint,hep) was scaled to in vivo hepatic clearance (CL,hep) using the following equation which was adapted from a well-stirred model.
(§4) [formula] where Q is the liver blood flow and fu is the fraction unbound (assumed to be unity in this case). All parameters used in the calculation are shown below (Table 4).
(§5) The extraction ratio (ER) was calculated by dividing the hepatic clearance of a compound to the liver blood flow. The data reported in Table 5 were obtained according to the human hepatocytes stability assay described above.

human hepatocytes = test: Hepatocytes stability assay (human hepatocytes); type: in vitro ADME; conditions: scaled hepatic clearance divided by liver blood flow, fu assumed unity
Procedure: as §1, §2, §3, §4, §5

SMILES	EC50 [1]	hepatocyte CLint at 1 μM [2]	Extraction Ratio (ER) (human hepatocytes)
CS(=O)(=O)N[C@H]1CCN2C(=O)COc3ncccc3[C@H]3CC[C@H](CC3)OC[C@@H]12 [Compound 18]	100 to 1000 nM	–	–
CS(=O)(=O)N[C@H]1CCCN2C(=O)C(F)(F)Oc3c(F)cc(F)cc3[C@H]3CC[C@H](CC3)OC[C@@H]12 [Compound 52]	< 100 nM	–	–
CS(=O)(=O)N[C@H]1CCCN2C(=O)COc3nnccc3[C@H]3CC[C@H](CC3)OC[C@@H]12 [Compound 56]	100 to 1000 nM	–	–
CS(=O)(=O)N[C@H]1CCCN2C(=O)COc3ccccc3[C@H]3CC[C@H](CC3)OC[C@@H]12 [Compound 2]	< 100 nM	–	–
CS(=O)(=O)N[C@H]1CCCN2CCCOc3ccccc3[C@H]3CC[C@H](CC3)OC[C@@H]12 [Compound 5]	> 1000 nM	–	–
CS(=O)(=O)N[C@H]1CCCN2C(=O)COc3ccc(Cl)cc3[C@H]3CC[C@H](CC3)OC[C@@H]12 [Compound 51]	< 100 nM	–	–
CS(=O)(=O)N[C@H]1CCCN2C(=O)COc3ncc(F)cc3[C@H]3CC[C@H](CC3)OC[C@@H]12 [Compound 64]	< 100 nM	–	–
CS(=O)(=O)N[C@H]1CCCN2C(=O)COc3c(F)cc(F)cc3[C@H]3CC[C@H](CC3)OC[C@@H]12 [Compound 12]	< 100 nM	–	–
CS(=O)(=O)N[C@H]1CCN2C(=O)C(F)(F)Oc3ccccc3[C@H]3CC[C@H](CC3)OC[C@@H]12 [Compound 53]	< 100 nM	–	–
CC1(C)CN2CCC[C@H](NS(C)(=O)=O)[C@@H]2CO[C@H]2CC[C@H](CC2)c2ccccc2O1 [Compound 44]	100 to 1000 nM	–	–
CS(=O)(=O)N[C@H]1CCCN2CC(F)(F)Oc3ccccc3C3CCC(CC3)OCC12 (stereo partly drawn) [Compound 41]	–	60 µL/min/1e6 cells	0.90
CS(=O)(=O)N[C@H]1CCCN2CCOc3ccc(Cl)cc3[C@H]3CC[C@H](CC3)OC[C@@H]12 [Compound 61]	> 1000 nM	–	–
CS(=O)(=O)N[C@H]1CCCN2CC(F)(F)Oc3ccccc3[C@H]3CC[C@H](CC3)OC[C@@H]12 [Compound 41]	> 1000 nM	–	–
CC1(C)Oc2ccccc2[C@H]2CC[C@H](CC2)OC[C@H]2[C@@H](NS(C)(=O)=O)CCCN2C1=O [Compound 36]	< 100 nM	–	–
CS(=O)(=O)N[C@H]1CCCN2C(=O)C(F)(F)Oc3ccccc3[C@H]3CC[C@H](CC3)OC[C@@H]12 [Compound 40]	< 100 nM	–	–
CS(=O)(=O)N[C@H]1CCN2C(=O)C(F)(F)Oc3c(F)cc(F)cc3[C@H]3CC[C@H](CC3)OC[C@@H]12 [Compound 54]	< 100 nM	–	–
CS(=O)(=O)N[C@H]1CCCN2C(=O)COc3ncccc3[C@H]3CC[C@H](CC3)OC[C@@H]12 [Compound 46]	< 100 nM	–	–

Results, then the molecule that gave them:

EC50 [1]	hepatocyte CLint at 1 μM [2]	Extraction Ratio (ER) (human hepatocytes)	SMILES
> 1000 nM	–	–	CS(=O)(=O)N[C@H]1CCN2CCOc3ccccc3[C@H]3CC[C@H](CC3)OC[C@@H]12 [Compound 39]
100 to 1000 nM	–	–	CS(=O)(=O)N[C@H]1CCCN2CC(F)(F)Oc3c(F)cc(F)cc3[C@H]3CC[C@H](CC3)OC[C@@H]12 [Compound 59]
< 100 nM	–	–	CS(=O)(=O)N[C@H]1CCCN2C(=O)COc3ccc(Br)cc3[C@H]3CC[C@H](CC3)OC[C@@H]12 [Compound 57]
< 100 nM	–	–	CS(=O)(=O)N[C@H]1CCN2C(=O)COc3c(F)cccc3[C@H]3CC[C@H](CC3)OC[C@@H]12 [Compound 42]
< 100 nM	–	–	CS(=O)(=O)N[C@H]1CCCN2C(=O)COc3nccnc3[C@H]3CC[C@H](CC3)OC[C@@H]12 [Compound 55]
< 100 nM	–	–	CS(=O)(=O)N[C@H]1CCN2C(=O)COc3ccccc3[C@H]3CC[C@H](CC3)OC[C@@H]12 [Compound 7]
100 to 1000 nM	–	–	CS(=O)(=O)N[C@H]1CCCN2CCOc3ncccc3[C@H]3CC[C@H](CC3)OC[C@@H]12 [Compound 65]
< 100 nM	–	–	CS(=O)(=O)N[C@H]1CCN2C(=O)COc3c(F)cc(F)cc3[C@H]3CC[C@H](CC3)OC[C@@H]12 [Compound 43]
< 100 nM	–	–	CS(=O)(=O)N[C@H]1CCCN2C(=O)COc3c(F)cccc3[C@H]3CC[C@H](CC3)OC[C@@H]12 [Compound 11]
< 100 nM	–	–	CS(=O)(=O)N[C@H]1CCCN2C(=O)CCCOc3ccccc3[C@H]3CC[C@H](CC3)OC[C@@H]12 [Compound 4]
100 to 1000 nM	–	–	CS(=O)(=O)N[C@H]1CCCN2CCOc3c(F)cccc3[C@H]3CC[C@H](CC3)OC[C@@H]12 [Compound 13]
100 to 1000 nM	–	–	CS(=O)(=O)N[C@H]1CCCN2CCOc3c(F)cc(F)cc3[C@H]3CC[C@H](CC3)OC[C@@H]12 [Compound 58]
< 100 nM	–	–	CS(=O)(=O)N[C@H]1CCCN2C(=O)CCOc3ccccc3[C@H]3CC[C@H](CC3)OC[C@@H]12 [Compound 1]
> 1000 nM	–	–	CS(=O)(=O)N[C@H]1CCCN2C(=O)CCCCOc3ccccc3[C@H]3CC[C@H](CC3)OC[C@@H]12 [Compound 3]
< 100 nM	–	–	CS(=O)(=O)N[C@H]1CCCN2CCOc3ccccc3[C@H]3CC[C@H](CC3)OC[C@@H]12 [Compound 6]
–	63 µL/min/1e6 cells	0.90	CS(=O)(=O)N[C@H]1CCCN2CCCOc3ccccc3C3CCC(CC3)OCC12 (stereo partly drawn) [Compound 5]
100 to 1000 nM	–	–	CS(=O)(=O)N[C@H]1CCCN2C(=O)CCc3ccccc3[C@H]3CC[C@H](CC3)OC[C@@H]12 [Compound 10]
